The source of these data is US20250387270A1, “DEVICES AND METHODS FOR WOUND TREATMENT” (APPLIED TISSUE TECHNOLOGIES LLC, priority 2016, published 2025).

Data set [1] is described as follows: Stability of antibiotic drug activity in 0.5% (agarose) hydrogel over time. It is filed as physicochemical. To be noted: antibiotic in 0.5% (agarose) hydrogel, compare with original concentration. From the text:
According to Table 1, gel-therapeutic agent preparations comprising an antibiotic and a 0.5% (agarose) hydrogel may be stable for up to one week. Drugs dissolve passively into the gel and stay stable over time. In some embodiments, the gel-therapeutic agent preparation may further comprise saline. The gel may be biocompatible, meaning that it is structurally similar to the extracellular matrix in tissues. The gel may be flowable, allowing either for, for example, casting into a mold or injection via needle through a port. The loading of the […] agent preparation in the device may allow consistent and uniform contact with the skin even with patient movement, maintaining continuous delivery of the therapeutic agent to the underlying tissue. The gel-therapeutic agent preparation may prevent loss of the therapeutic agent in the event of a minor leak in the adhesive of the device.

Data set [2] concerns common bacteria. The conditions noted are these: typical value for common bacteria; cited from earlier work.

For Gentamicin, the “Drug activity, 3 days” value in data set [1] (3 days) is 2.41 µg/mL. In data set [1] (7 days), the “Drug activity, 7 days” value was determined as 2.04 µg/mL. Moreover, the MIC entry in data set [2] was “around 2 micrograms per ml”.

As to `CN[C@H](CC(C)C)C(=O)N[C@H]1C(=O)N[C@@H](CC(N)=O)C(=O)N[C@H]2C(=O)N[C@H]3C(=O)N[C@H](C(=O)N[C@H](C(=O)O)c4cc(O)cc(O)c4-c4cc3ccc4O)[C@H](O)c3ccc(c(Cl)c3)Oc3cc2cc(c3O[C@@H]2O[C@H](CO)[C@@H](O)[C@H](O)[C@H]2O[C@H]2C[C@](C)(N)[C@H](O)[C@H](C)O2)Oc2ccc(cc2Cl)[C@H]1O` [Vancomicin], the MIC result in data set [2] is “around 2 micrograms per ml”.
